What was measured:
Format in all cases: cell-based
[1] = tested on: Human lung cancer cells A549; experiment: MTS cell growth inhibition, A549; details: compound concentration 10 μM, 48 h, MTS, read-out: Inhibition rate against A549 at 10 μM (%)
Protocol: (§1) 1) Medium: DMEM (Dulbecco's modified eagle medium) or RPMI1640 (containing 10% fetal bovine serum, 100 μg/mL ampicillin, 100 μg/mL streptomycin).
(§2) 2) Reagent: MTS reaction solution (containing 2 mg/mL of MTS (3-(4,5-dimethylthiazol-2-yl)-5-(3-carboxymethoxyphenyl)-2-(4-sulfophenyl)-2H-tetrazolium, inner salt); 100 μg/mL PES ([…])).
(§3) Human promyelocytic leukemia cells HL-60 (2×10^4 cells/well) cultured in vitro were incubated into a 96-well culture plate, the volume of cell-culture medium was 90 μL, and then 10 μL of the compound at each gradient concentration was added (the highest concentration was 10 μM, which was diluted stepwise by ⅓, and 8 concentration points were set in total; the system contained 0.1% DMSO (dimethyl sulfoxide)). The cell plate with uniformly mixed compound was cultured in a cell culture incubator (37° C.; 5% CO2) for 48 h, then 20 μμL of MTS reaction solution was added, uniformly mixed and incubated in the cell culture incubator (37° C.; 5% CO2) for 1-4 hr; OD values at 490 nm were measured by a microplate reader (VARIOSKAN FLASH, Thermo). Three parallels were set in each group of experiments, with 0.1% (a final concentration) DMSO as a negative control, and a medium without cells and compounds as a blank control. The cell growth inhibition rate was calculated by the following formula:
(§4) Cell growth inhibition rate%=1−(ODexperimental group−ODblank group)/(ODnegative group−ODblank group)×100%
(§5) 4) IC50 calculation: The semi-inhibitory concentration of the compound acting on cell was calculated using GradPad Prism 5 software according to the measured cell growth inhibition rate.
(§6) Human lung cancer cells A549, human gastric cancer cells BGC-823, human liver cancer cells HepG-2 and human breast cancer cells MCF-7, human osteosarcoma cells U2OS, human prostate cancer cells LNCAP cultured in vitro were added in a 96-well culture plate at 1,000-10,000 cells/well, incubated until adherence, and then the compound was added. As to other procedures, please refer to the method (1) above.

[2] = tested on: Human promyelocytic leukemia cells HL-60; experiment: MTS cell growth inhibition, HL-60; details: for inhibition at 10 µM / IC50: Homo sapiens, HL-60, 48 h, MTS; for inhibition at 10 µM: compound concentration 10 μM, read-out: Inhibition rate against HL-60 at 10 μM (%); for IC50: growth inhibition; for growth inhibitory activity on HL-60 (in words): summary of Tables 3 and 4
Protocol: as §1, §2, §3, §4, §5

[3] = tested on: human prostate cancer cells LNCAP; experiment: MTS cell growth inhibition, LNCAP; details: for inhibition at 10 µM / IC50: Homo sapiens, LNCaP, 48 h, MTS; for inhibition at 10 µM: compound concentration 10 μM, read-out: Inhibition rate against LNCAP at 10 μM (%); for IC50: growth inhibition; for growth inhibitory activity on LNCAP (in words): summary of Tables 3 and 4
Protocol: as §1, §2, §3, §4, §5, §6

[4] = tested on: human gastric cancer cells BGC-823; experiment: MTS cell growth inhibition, BGC-823; details: 48 h; for inhibition at 10 µM: compound concentration 10 μM, read-out: Inhibition rate against BGC-823 at 10 μM (%); for IC50: growth inhibition
Protocol: as §1, §2, §3, §4, §5, §6

[5] = tested on: human liver cancer cells HepG-2; experiment: MTS cell growth inhibition, HepG-2; details: 48 h; for inhibition at 10 µM: HepG2, compound concentration 10 μM, read-out: Inhibition rate against HepG-2 at 10 μM (%); for IC50: HepG2, growth inhibition
Protocol: as §1, §2, §3, §4, §5, §6

[6] = tested on: human osteosarcoma cells U2OS; experiment: MTS cell growth inhibition, U2OS; details: for inhibition at 10 µM / IC50: Homo sapiens, U2OS, 48 h, MTS; for inhibition at 10 µM: compound concentration 10 μM, read-out: Inhibition rate against U2OS at 10 μM (%); for IC50: growth inhibition; for growth inhibitory activity on U2OS (in words): summary of Tables 3 and 4
Protocol: as §1, §2, §3, §4, §5, §6

[7] = tested on: human breast cancer cells MCF-7; experiment: MTS cell growth inhibition, MCF-7; details: MCF7, compound concentration 10 μM, 48 h, read-out: Inhibition rate against MCF-7 at 10 μM (%)
Protocol: as §1, §2, §3, §4, §5, §6

Row | IC50 [2] [nM] | IC50 [3] [nM] | IC50 [6] [nM] | IC50 [4] [nM] | IC50 [5] [nM] | Compound | inhibition at 10 µM [1] [%] | inhibition at 10 µM [2] [%] | inhibition at 10 µM [3] [%] | inhibition at 10 µM [4] [%] | inhibition at 10 µM [5] [%] | inhibition at 10 µM [6] [%] | inhibition at 10 µM [7] [%] | growth inhibitory activity on HL-60 (in words) [2] | growth inhibitory activity on LNCAP (in words) [3] | growth inhibitory activity on U2OS (in words) [6]
1 | 2300 | 849 | 2750 | – | – | O=C(NCc1ccccc1-c1ccsc1)c1cc2scnc2[nH]1 [Compound I-24] | 20.1 | 64.3 | 48.7 | 51.2 | 38.2 | 37.6 | 31.5 | – | – | –
2 | 5 | 130 | 928 | – | – | O=C(NCc1ccccc1-c1cc2ccccc2o1)c1cc2scnc2[nH]1 [Compound I-28] | 50.3 | 74.8 | 71 | 60.3 | 44.4 | 48.7 | 21 | relatively good growth inhibitory activity | relatively good growth inhibitory activity | relatively good growth inhibitory activity
3 | 1780 | 6040 | 6350 | – | – | COC(=O)c1ccc(NC(=O)c2cc3scnc3[nH]2)cc1 [Compound I-8] | 56.8 | 69.4 | – | 72.2 | 58.1 | 50.9 | 21.2 | – | – | –
4 | 672 | 2570 | 3660 | – | – | O=C(NCc1ccccc1-c1ccncc1)c1cc2scnc2[nH]1 [Compound I-22] | 54.8 | 65.2 | 64.3 | 64.6 | 48.9 | 50 | 15.1 | – | – | –
5 | 3210 | 163 | 6170 | – | – | O=C(NCc1ccccc1-c1ccco1)c1cc2scnc2[nH]1 [Compound I-26] | < 0 | 64.8 | 44.9 | 23.4 | 29.7 | 44.5 | 3.1 | – | – | –
6 | 2710 | > 10000 | > 10000 | – | – | CCN(CC)c1ccc(NC(=O)c2cc3scnc3[nH]2)cc1 [Compound I-15] | 69.4 | 63.2 | – | 71.7 | 57.8 | 53.5 | 23.8 | – | – | –
7 | 7030 | 4740 | 7850 | – | – | Cc1cn(-c2cc(NC(=O)c3cc4scnc4[nH]3)cc(C(F)(F)F)c2)cn1 [Compound I-35] | 59.5 | 80.4 | 61.9 | 44.4 | 50.5 | 42.2 | < 0 | – | – | –
8 | 475 | 1580 | 2920 | – | – | O=C(NCc1ccccc1-c1cccnc1)c1cc2scnc2[nH]1 [Compound I-23] | 53.4 | 70.5 | 64.4 | 71.1 | 60.4 | 56 | 27 | – | – | –

Further lines, the compound ahead of its results:

Row | Compound | IC50 [2] [nM] | IC50 [3] [nM] | IC50 [6] [nM] | IC50 [4] [nM] | IC50 [5] [nM] | inhibition at 10 µM [1] [%] | inhibition at 10 µM [2] [%] | inhibition at 10 µM [3] [%] | inhibition at 10 µM [4] [%] | inhibition at 10 µM [5] [%] | inhibition at 10 µM [6] [%] | inhibition at 10 µM [7] [%] | growth inhibitory activity on HL-60 (in words) [2] | growth inhibitory activity on LNCAP (in words) [3] | growth inhibitory activity on U2OS (in words) [6]
9 | CS(=O)(=O)c1ccc(OCc2cccc(NC(=O)c3cc4scnc4[nH]3)c2)cc1 [Compound I-32] | 1850 | 7030 | 5470 | – | – | < 0 | 70.3 | 41.5 | 9.2 | < 0 | 45.2 | < 0 | – | – | –
10 | CSc1ccc(OCc2cccc(NC(=O)c3cc4scnc4[nH]3)c2)cc1 [Compound I-31] | 491 | 2600 | 8920 | – | – | < 0 | 71.8 | 59.3 | 20.4 | 18.5 | 54.9 | 13.9 | – | – | –
11 | COc1ccc(NC(=O)c2cc3scnc3[nH]2)cc1 [Compound I-12] | 590 | 6310 | 1520 | 952 | 223 | 9.3 | 68.9 | 54.6 | 47.4 | 58.3 | 57.7 | 5.9 | – | – | –
12 | O=C(Nc1ccc(C(F)(F)F)cc1)c1cc2scnc2[nH]1 [Compound I-11] | 653 | 5260 | 1510 | 849 | 1470 | 7.6 | 71.2 | 56.1 | 58.8 | 62.9 | 56.2 | 7.4 | – | – | –
13 | O=C(Nc1ccc(OC(F)(F)F)cc1)c1cc2scnc2[nH]1 [Compound I-6] | 217 | 319 | 929 | 582 | 1980 | 6.3 | 69.1 | 55.8 | 64.5 | 66.5 | 56.2 | 3.4 | – | – | –
14 | CN(C)c1ccc(NC(=O)c2cc3scnc3[nH]2)cc1 [Compound I-13] | 1300 | > 10000 | 2680 | 1110 | 1930 | 3.4 | 69.7 | 48.6 | 54.3 | 54.7 | 53.2 | < 0 | – | – | –
15 | O=C(Nc1ccc([N+](=O)[O-])cc1)c1cc2scnc2[nH]1 [Compound I-16] | – | – | – | – | – | 32.4 | 44.6 | 58 | 63.3 | 38.6 | 40.2 | 17.6 | – | – | –
16 | O=C(NCc1ccccc1-c1ccoc1)c1cc2scnc2[nH]1 [Compound I-27] | 0.012 | 32 | 6 | – | – | 67.9 | 68.8 | – | 55.1 | 43.2 | 44.9 | 1.7 | relatively good growth inhibitory activity | relatively good growth inhibitory activity | relatively good growth inhibitory activity

— patent publication US20200325156A1, “HETEROARYL AMIDE COMPOUNDS, PREPARATION METHOD THEREFOR, PHARMACEUTICAL COMPOSITIONS THEREOF, AND APPLICATIONS THEREOF” (Rui Jin Hospital Affiliated to Shanghai Jiao Tong …, priority 2017, published 2020)
